Patent US11547681B2, “N-acylethanolamide derivatives and uses thereof” (ELIEM THERAPEUTICS, INC., priority 2016, dated 2023)
Values belong to the compound of their own block, whether it stands above or below them.

Test: in vitro
Details: for Concentration (μM) of analyte PEA, 0 min / Concentration (μM) of analyte PEA, 10 min / Concentration (μM) of analyte PEA, 20 min / Concentration (μM) of analyte PEA, 30 min / Concentration (μM) of analyte PEA, 60 min / % Remaining of Initial (n = 1), 0 min / % Remaining of Initial (n = 1), 10 min / % Remaining of Initial (n = 1), 20 min / % Remaining of Initial (n = 1), 30 min / % Remaining of Initial (n = 1), 60 min: 1 μM; for % Remaining of Initial (n = 1), 0 min: s9, 0 h; for % Remaining of Initial (n = 1), 10 min: s9, 10 min; for % Remaining of Initial (n = 1), 20 min: s9, 20 min; for % Remaining of Initial (n = 1), 30 min: s9, 0.5 h; for % Remaining of Initial (n = 1), 60 min: s9, 1 h; for half-life at 1 μM: s9, Half-life (min)
Method: Reaction mixture, minus cofactors, was prepared as described below. Test article was added into the reaction mixture at a final concentration of 1 μM. […] An aliquot of the reaction mixture (without cofactor cocktail) was equilibrated in a shaking water bath at 37° C. for 3 minutes. The reaction was initiated by the addition of cofactor cocktail (see below), and the mixture was then incubated in a shaking water bath at 37° C. Aliquots (100 μL) were withdrawn 0, 10, 20, 30 and 60 minutes. Test article samples were immediately combined with 300 μL of ice-cold acetonitrile containing 1% formic acid. Control samples were immediately combined with 400 μL of ice-cold 50/50 acetonitrile (ACN)/dH2O containing 0.1% formic acid and internal standard to terminate the reaction. Samples were then mixed and centrifuged to precipitate proteins. Calibration standards were prepared in matched matrix. Samples and standards were assayed by LC-MS/MS using electrospray ionization for both the dosed prodrug and the expected drug (PEA). Analytical conditions are outlined in Appendix 8-1. Test article concentration at each time point was compared to the test article concentration at time 0 to determine the percent remaining at each time point. Half-lives were calculated using GraphPad software, fitting to a single-phase exponential decay equation.
Reaction mixture, minus cofactors, was prepared as described below. Test article was added into the reaction mixture at a final concentration of 1 μM. […] An aliquot of the reaction mixture (without cofactor cocktail) was equilibrated in a shaking water bath at 37° C. for 5 minutes. Reaction was initiated by the addition of cofactor cocktail (see below), and mixture was then incubated in a shaking water bath at 37° C. Aliquots (100 μL) were withdrawn at 0, 10, 20, 30, and 60 minutes. Test article samples were immediately combined with 300 μL of ice-cold acetonitrile containing 1% formic acid. Control samples were immediately combined with 400 μL of ice-cold 50/50 acetonitrile (ACN)/dH2O containing 0.1% formic acid and internal standard to terminate the reaction. Samples were then mixed and centrifuged to precipitate proteins. Calibration standards were prepared in matched matrix. Samples and standards were assayed by LC-MS/MS using electrospray ionization for both dosed prodrug and expected drug (PEA). Analytical conditions are outlined in Appendix 10-1. Test article concentration at each time point was compared to test article concentration at time 0 to determine the percent remaining at each time point. Half-lives were calculated using GraphPad software, fitting to a single-phase exponential decay equation.
The reaction mixture, minus cofactors, was prepared as described below. Test article was added into the reaction mixture at a final concentration of 1 μM. […] An aliquot of the reaction mixture (without cofactor cocktail) was equilibrated in a shaking water bath at 37° C. for 3 minutes. Reaction was initiated by the addition of cofactor cocktail (see below), and the mixture was then incubated in a shaking water bath at 37° C. Aliquots (100 μL) were withdrawn at 0, 10, 20, 30, and 60 minutes. Test article samples were immediately combined with 300 μL of ice-cold acetonitrile containing 1% formic acid. Control samples were immediately combined with 400 μL of ice-cold 50/50 acetonitrile (ACN)/dH2O containing 0.1% formic acid and internal standard to terminate the reaction. Samples were then mixed and centrifuged to precipitate proteins. Calibration standards were prepared in matched matrix. Samples and standards were assayed by LC-MS/MS using electrospray ionization for both dosed prodrug and expected drug (PEA). Analytical conditions are outlined in Appendix 13-1. Test article concentration at each time point was compared to the test article concentration at time 0 to determine the percent remaining at each time point.

[1] = male, Sprague-Dawley, rat, calculated half-life in parentheses

Concentration (μM) of analyte PEA, 0 min (both, human): 0.00032 µM
Concentration (μM) of analyte PEA, 10 min (both, human): 0.0058 µM
Concentration (μM) of analyte PEA, 20 min (both, human): 0.017 µM
Concentration (μM) of analyte PEA, 30 min (both, human): 0.015 µM
Concentration (μM) of analyte PEA, 60 min (both, human): 0.0096 µM
% Remaining of Initial (n = 1), 0 min (both, human): 100%
% Remaining of Initial (n = 1), 10 min (both, human): 104%
% Remaining of Initial (n = 1), 20 min (both, human): 89%
% Remaining of Initial (n = 1), 30 min (both, human): 95%
% Remaining of Initial (n = 1), 60 min (both, human): 66%
half-life at 1 μM (both, human): > 1 h
Concentration (μM) of analyte PEA, 0 min (male, Beagle, dog): 0.010 µM
Concentration (μM) of analyte PEA, 10 min (male, Beagle, dog): 0.030 µM
Concentration (μM) of analyte PEA, 20 min (male, Beagle, dog): 0.035 µM
Concentration (μM) of analyte PEA, 30 min (male, Beagle, dog): 0.031 µM
Concentration (μM) of analyte PEA, 60 min (male, Beagle, dog): 0.029 µM
% Remaining of Initial (n = 1), 0 min (male, Beagle, dog): 100%
% Remaining of Initial (n = 1), 10 min (male, Beagle, dog): 104%
% Remaining of Initial (n = 1), 20 min (male, Beagle, dog): 89%
% Remaining of Initial (n = 1), 30 min (male, Beagle, dog): 80%
% Remaining of Initial (n = 1), 60 min (male, Beagle, dog): 86%
half-life at 1 μM (male, Beagle, dog): > 1 h
Concentration (μM) of analyte PEA, 0 min (male, CD-1, mouse): 0.013 µM
Concentration (μM) of analyte PEA, 10 min (male, CD-1, mouse): 0.031 µM
Concentration (μM) of analyte PEA, 20 min (male, CD-1, mouse): 0.022 µM
Concentration (μM) of analyte PEA, 30 min (male, CD-1, mouse): 0.023 µM
Concentration (μM) of analyte PEA, 60 min (male, CD-1, mouse): 0.025 µM
% Remaining of Initial (n = 1), 0 min (male, CD-1, mouse): 100%
% Remaining of Initial (n = 1), 10 min (male, CD-1, mouse): 82%
% Remaining of Initial (n = 1), 20 min (male, CD-1, mouse): 61%
% Remaining of Initial (n = 1), 30 min (male, CD-1, mouse): 78%
% Remaining of Initial (n = 1), 60 min (male, CD-1, mouse): 61%
half-life at 1 μM (male, CD-1, mouse): > 1 h
half-life at 1 μM (male, CD-1, mouse, calculated half-life in parentheses): 1.45 h
Concentration (μM) of analyte PEA, 0 min (male, Sprague-Dawley, rat): 0.015 µM
Concentration (μM) of analyte PEA, 10 min (male, Sprague-Dawley, rat): 0.045 µM
Concentration (μM) of analyte PEA, 20 min (male, Sprague-Dawley, rat): 0.033 µM
Concentration (μM) of analyte PEA, 30 min (male, Sprague-Dawley, rat): 0.017 µM
Concentration (μM) of analyte PEA, 60 min (male, Sprague-Dawley, rat): 0.013 µM
% Remaining of Initial (n = 1), 0 min (male, Sprague-Dawley, rat): 100%
% Remaining of Initial (n = 1), 10 min (male, Sprague-Dawley, rat): 66%
% Remaining of Initial (n = 1), 20 min (male, Sprague-Dawley, rat): 69%
% Remaining of Initial (n = 1), 30 min (male, Sprague-Dawley, rat): 71%
% Remaining of Initial (n = 1), 60 min (male, Sprague-Dawley, rat): 52%
half-life at 1 μM (male, Sprague-Dawley, rat): > 1 h
half-life at 1 μM [1]: 1.2 h
SMILES: CCCCCCCCCCCCCCCC(=O)NCCOC(=O)CCC(=O)OCC(COC(=O)CCCCCCC)OC(=O)CCCCCCC (stereo not drawn) [Compound I-3, PEA-Succinate-Glycerol-Di-Caprylic]

Concentration (μM) of analyte PEA, 0 min (both, human): 0.024 µM
Concentration (μM) of analyte PEA, 10 min (both, human): 0.036 µM
Concentration (μM) of analyte PEA, 20 min (both, human): 0.036 µM
Concentration (μM) of analyte PEA, 30 min (both, human): 0.025 µM
Concentration (μM) of analyte PEA, 60 min (both, human): 0.018 µM
% Remaining of Initial (n = 1), 0 min (both, human): 100%
% Remaining of Initial (n = 1), 10 min (both, human): 80%
% Remaining of Initial (n = 1), 20 min (both, human): 81%
% Remaining of Initial (n = 1), 30 min (both, human): 70%
% Remaining of Initial (n = 1), 60 min (both, human): 72%
half-life at 1 μM (both, human): > 1 h
Concentration (μM) of analyte PEA, 0 min (male, Beagle, dog): 0.024 µM
Concentration (μM) of analyte PEA, 10 min (male, Beagle, dog): 0.044 µM
Concentration (μM) of analyte PEA, 20 min (male, Beagle, dog): 0.036 µM
Concentration (μM) of analyte PEA, 30 min (male, Beagle, dog): 0.041 µM
Concentration (μM) of analyte PEA, 60 min (male, Beagle, dog): 0.038 µM
% Remaining of Initial (n = 1), 0 min (male, Beagle, dog): 100%
% Remaining of Initial (n = 1), 10 min (male, Beagle, dog): 72%
% Remaining of Initial (n = 1), 20 min (male, Beagle, dog): 79%
% Remaining of Initial (n = 1), 30 min (male, Beagle, dog): 74%
% Remaining of Initial (n = 1), 60 min (male, Beagle, dog): 85%
half-life at 1 μM (male, Beagle, dog): > 1 h
Concentration (μM) of analyte PEA, 0 min (male, CD-1, mouse): 0.046 µM
Concentration (μM) of analyte PEA, 10 min (male, CD-1, mouse): 0.061 µM
Concentration (μM) of analyte PEA, 20 min (male, CD-1, mouse): 0.043 µM
Concentration (μM) of analyte PEA, 30 min (male, CD-1, mouse): 0.029 µM
Concentration (μM) of analyte PEA, 60 min (male, CD-1, mouse): 0.018 µM
% Remaining of Initial (n = 1), 0 min (male, CD-1, mouse): 100%
% Remaining of Initial (n = 1), 10 min (male, CD-1, mouse): 66%
% Remaining of Initial (n = 1), 20 min (male, CD-1, mouse): 50%
% Remaining of Initial (n = 1), 30 min (male, CD-1, mouse): 59%
% Remaining of Initial (n = 1), 60 min (male, CD-1, mouse): 50%
Concentration (μM) of analyte PEA, 0 min (male, Sprague-Dawley, rat): 0.020 µM
Concentration (μM) of analyte PEA, 10 min (male, Sprague-Dawley, rat): 0.025 µM
Concentration (μM) of analyte PEA, 20 min (male, Sprague-Dawley, rat): 0.037 µM
Concentration (μM) of analyte PEA, 30 min (male, Sprague-Dawley, rat): 0.026 µM
Concentration (μM) of analyte PEA, 60 min (male, Sprague-Dawley, rat): 0.013 µM
% Remaining of Initial (n = 1), 0 min (male, Sprague-Dawley, rat): 100%
% Remaining of Initial (n = 1), 10 min (male, Sprague-Dawley, rat): 98%
% Remaining of Initial (n = 1), 20 min (male, Sprague-Dawley, rat): 82%
% Remaining of Initial (n = 1), 30 min (male, Sprague-Dawley, rat): 75%
% Remaining of Initial (n = 1), 60 min (male, Sprague-Dawley, rat): 67%
half-life at 1 μM (male, Sprague-Dawley, rat): > 1 h
half-life at 1 μM [1]: 1.52 h
SMILES: CC/C=C\C/C=C\C/C=C\C/C=C\C/C=C\CCCC(=O)OCCNC(=O)CCCCCCCCCCCCCCC [Compound I-5]
